Laboratory results from patent publication US20160108381A1, “DNA POLYMERASES AND MUTANTS THEREOF” (LIFE TECHNOLOGIES CORPORATION, priority 2001, published 2016).

Assays:
Assay in all cases: Steady-state kinetics, DNA- and RNA-dependent polymerase activity
Assay type in all cases: biochemical
[1] = biological target: T1, Caldibacillus cellulovorans CompA.2 (CA2) DNA polymerase, SEQ ID NO:16 ([Caldibacillus] cellulovorans, UniProt Q6X9S0)
T1 sequence (Q6X9S0 with tags, fused parts or gaps): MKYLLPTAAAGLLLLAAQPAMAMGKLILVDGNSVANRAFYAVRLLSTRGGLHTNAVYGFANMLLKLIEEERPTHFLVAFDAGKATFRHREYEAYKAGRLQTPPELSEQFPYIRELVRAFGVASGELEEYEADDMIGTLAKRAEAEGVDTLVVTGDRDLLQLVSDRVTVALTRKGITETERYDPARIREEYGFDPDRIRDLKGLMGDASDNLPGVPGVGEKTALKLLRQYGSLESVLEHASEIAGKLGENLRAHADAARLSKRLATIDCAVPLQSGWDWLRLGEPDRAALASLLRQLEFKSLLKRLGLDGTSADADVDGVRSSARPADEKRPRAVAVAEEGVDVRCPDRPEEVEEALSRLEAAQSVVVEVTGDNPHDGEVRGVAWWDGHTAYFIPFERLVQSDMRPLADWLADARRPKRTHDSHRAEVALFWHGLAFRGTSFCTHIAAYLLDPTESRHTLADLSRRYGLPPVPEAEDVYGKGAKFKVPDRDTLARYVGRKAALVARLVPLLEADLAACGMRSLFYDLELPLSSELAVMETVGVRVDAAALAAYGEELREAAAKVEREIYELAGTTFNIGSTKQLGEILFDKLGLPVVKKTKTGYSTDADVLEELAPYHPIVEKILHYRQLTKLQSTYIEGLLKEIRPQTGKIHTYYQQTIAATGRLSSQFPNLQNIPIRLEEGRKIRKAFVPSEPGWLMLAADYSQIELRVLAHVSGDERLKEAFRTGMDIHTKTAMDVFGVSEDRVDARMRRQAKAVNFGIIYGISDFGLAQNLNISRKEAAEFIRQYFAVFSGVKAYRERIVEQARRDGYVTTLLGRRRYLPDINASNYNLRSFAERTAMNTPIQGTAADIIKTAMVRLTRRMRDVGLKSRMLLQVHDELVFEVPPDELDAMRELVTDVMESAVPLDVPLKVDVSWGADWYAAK
Protocol: (§1) Purification of CA2, B.EA1, Rt41A, Dth, Tok13B, Tok7B, and Rt69B DNA polymerase. E. coli cells (BL21SI, Invitrogen Corporation, Carlsbad, Calif.) bearing the plasmid pET26B with the gene for CA2, B.EA1, Rt41A, or Dth DNA polymerase were grown in 2.8-1 Fembach flasks in LB broth containing no salt and 50 μg/ml kanamycin at 37° C. After the culture reached an A590 of 1.2, expression of DNA polymerase was induced with 0.3 M NaCl for 3 hr. Cells were harvested by centrifugation and stored at −70° C. E. coli cells (BL21AI) bearing the plasmid pET14B with the gene for Tok13B, Tok7B, or RT69B DNA polymerase were grown in 2.8-1 Fembach flasks in LB broth containing 50 μg/ml ampicillin at 37° C. After the culture reached an A590 of 1.0, expression of DNA polymerase was induced by the addition of 0.2% arabinose for 3 hr. Cells were harvested by centrifugation and stored at −70° C.
(§2) Steady-state kinetic measurements.
(§3) The catalytic rate constant kcat and the Michaelis constant KM were determined for both the DNA-dependent and RNA-dependent polymerase activities for the polypeptides of the invention and these parameters were compared to those of Tne DNA polymerase enzyme and […]™ II reverse transcriptase. […]

[2] = biological target: SuperScript II reverse transcriptase (SSII, SS II RT), a modified M-MLV reverse transcriptase (Moloney murine leukemia virus isolate Shinnick, UniProt P03355)
Protocol: (§4) Thermotoga neapolitana (Tne) DNA polymerase mutated to eliminate 3′ to 5′ and 5′ to 3′ exonuclease activity was cloned, engineered and purified as described in U.S. Pat. No. 6,306,588. SuperScript II reverse transcriptase (SS II RT) was from Invitrogen Corporation, Carlsbad, Calif.
as §2, §3

[3] = biological target: T2, Thermotoga neapolitana (Tne) DNA polymerase, mutated to eliminate 3′ to 5′ and 5′ to 3′ exonuclease activity (Thermotoga neapolitana, UniProt B9K7T2)
T2 construct: mutated to eliminate 3'-5' and 5'-3' exonuclease activity as in US 6,306,588 (recalled, unsure: D137A and D323A)
Protocol: as §4, §2, §3

[4] = biological target: T3, Bacillus caldolyticus EA1.3 (B.EA1) DNA polymerase, SEQ ID NO:20 ([Bacillus] caldolyticus, UniProt Q6X9S1); details: Table 40; dTTP; 55 °C
T3 sequence (Q6X9S1 with tags, fused parts or gaps): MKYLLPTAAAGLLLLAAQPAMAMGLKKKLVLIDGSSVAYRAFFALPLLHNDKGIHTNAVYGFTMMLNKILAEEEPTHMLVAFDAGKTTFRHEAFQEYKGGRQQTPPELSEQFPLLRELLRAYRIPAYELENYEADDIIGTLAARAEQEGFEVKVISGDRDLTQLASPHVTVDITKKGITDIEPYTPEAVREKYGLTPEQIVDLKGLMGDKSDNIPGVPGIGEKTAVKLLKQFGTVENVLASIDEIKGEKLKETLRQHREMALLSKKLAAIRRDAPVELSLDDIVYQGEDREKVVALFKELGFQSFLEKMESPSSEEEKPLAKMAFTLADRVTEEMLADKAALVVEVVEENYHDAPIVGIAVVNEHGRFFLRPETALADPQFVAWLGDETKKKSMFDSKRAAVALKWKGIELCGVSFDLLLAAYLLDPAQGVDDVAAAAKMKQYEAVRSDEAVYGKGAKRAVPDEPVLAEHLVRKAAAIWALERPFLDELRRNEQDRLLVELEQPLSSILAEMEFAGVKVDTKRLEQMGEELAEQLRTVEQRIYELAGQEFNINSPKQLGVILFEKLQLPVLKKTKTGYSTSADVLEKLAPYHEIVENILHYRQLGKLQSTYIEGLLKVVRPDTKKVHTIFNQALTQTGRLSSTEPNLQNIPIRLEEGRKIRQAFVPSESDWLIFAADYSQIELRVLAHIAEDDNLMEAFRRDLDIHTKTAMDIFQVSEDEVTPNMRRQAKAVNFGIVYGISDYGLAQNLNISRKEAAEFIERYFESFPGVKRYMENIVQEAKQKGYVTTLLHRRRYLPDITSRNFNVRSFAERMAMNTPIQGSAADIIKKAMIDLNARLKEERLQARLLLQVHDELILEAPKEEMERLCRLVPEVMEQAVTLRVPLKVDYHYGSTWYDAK
Protocol: as §1, §2

[5] = Table 34, RNA template, 2 mM MgCl2, 45 °C per footnote
[6] = read-out: Km RNA (dTTP), Table 34, RNA template, 2 mM MgCl2, 45 °C per footnote

T2 sequence (B9K7T2 entry or part of it, stated change not applied): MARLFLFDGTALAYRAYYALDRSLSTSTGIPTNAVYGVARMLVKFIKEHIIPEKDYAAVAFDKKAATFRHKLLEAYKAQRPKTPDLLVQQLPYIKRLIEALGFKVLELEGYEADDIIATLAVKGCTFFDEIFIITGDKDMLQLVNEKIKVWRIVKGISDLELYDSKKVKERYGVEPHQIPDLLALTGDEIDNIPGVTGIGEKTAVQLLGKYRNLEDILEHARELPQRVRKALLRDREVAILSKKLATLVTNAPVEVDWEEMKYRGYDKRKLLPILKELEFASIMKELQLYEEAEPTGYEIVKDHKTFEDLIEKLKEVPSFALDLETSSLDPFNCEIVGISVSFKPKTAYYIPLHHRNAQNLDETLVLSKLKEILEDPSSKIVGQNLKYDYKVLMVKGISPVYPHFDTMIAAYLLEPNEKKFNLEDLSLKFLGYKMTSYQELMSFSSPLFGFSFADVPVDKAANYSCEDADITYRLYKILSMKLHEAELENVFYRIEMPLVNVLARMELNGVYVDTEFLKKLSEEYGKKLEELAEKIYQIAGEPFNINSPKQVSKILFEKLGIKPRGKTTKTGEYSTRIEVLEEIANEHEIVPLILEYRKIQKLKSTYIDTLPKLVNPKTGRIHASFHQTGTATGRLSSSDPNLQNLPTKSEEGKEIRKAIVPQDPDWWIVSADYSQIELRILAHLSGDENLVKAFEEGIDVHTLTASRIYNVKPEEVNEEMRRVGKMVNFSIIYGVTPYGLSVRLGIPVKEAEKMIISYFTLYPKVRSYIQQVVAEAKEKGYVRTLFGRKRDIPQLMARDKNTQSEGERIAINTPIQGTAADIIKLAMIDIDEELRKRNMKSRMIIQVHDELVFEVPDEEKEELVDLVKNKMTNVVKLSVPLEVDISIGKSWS

Cc1cn([C@H]2C[C@H](O)[C@@H](COP(=O)(O)OP(=O)(O)OP(=O)(O)O)O2)c(=O)[nH]c1=O [dTTP]
Kcat RNA (dTTP) [1, 5]: 5 s⁻¹ | kCAT Ratio (RNA/DNA) ([1]; Table 40, dTTP, 55 °C): 0.59 | Km [1, 6]: 17 µM | Kcat RNA (dTTP) [2, 5]: 14.5 s⁻¹ | kCAT Ratio (RNA/DNA) ([2]; Table 40, 37 °C, RNA-DNA with dTTP over DNA-DNA with dGTP): 2.8 | kCAT RNA-DNA ([2]; Table 40, (rA)250•(dT) template-primer, dTTP, 37 °C, mean ± SD): 45 ± 18 s⁻¹ | Km [2, 6]: 17 µM | Kcat RNA (dTTP) [3, 5]: 0.094 s⁻¹ | kCAT Ratio (RNA/DNA) ([3]; Table 40, 72 °C, RNA-DNA with dTTP over DNA-DNA with dGTP): 0.002 | kCAT RNA-DNA ([3]; Table 40, (rA)250•(dT)40, dTTP, 72 °C, mean ± SD): 0.2 ± 0.04 s⁻¹ | Km [3, 6]: 37 µM | kCAT Ratio (RNA/DNA) [4]: 0.59
